Measured values: patent US20250002475A1 (EPICS THERAPEUTICS, priority 2023, published 2025)

Experiments:
[1] = molecular target: T1, recombinant METTL3/METTL14 complex (Homo sapiens, UniProt Q86U44); test: METTL3/14 Scintillation Proximity Assay (SPA), RNA methyltransferase activity; format: biochemical; details: 5.31 nM METTL3/14 complex, 250 nM RNA substrate, 1 μM 3H-SAM, 90 min; for compounds marked * best of the two separated forms
T1 construct: purchased Active Motif 311970; host or cells: Sf9 cells
T1 sequence (Q86U44 whole entry): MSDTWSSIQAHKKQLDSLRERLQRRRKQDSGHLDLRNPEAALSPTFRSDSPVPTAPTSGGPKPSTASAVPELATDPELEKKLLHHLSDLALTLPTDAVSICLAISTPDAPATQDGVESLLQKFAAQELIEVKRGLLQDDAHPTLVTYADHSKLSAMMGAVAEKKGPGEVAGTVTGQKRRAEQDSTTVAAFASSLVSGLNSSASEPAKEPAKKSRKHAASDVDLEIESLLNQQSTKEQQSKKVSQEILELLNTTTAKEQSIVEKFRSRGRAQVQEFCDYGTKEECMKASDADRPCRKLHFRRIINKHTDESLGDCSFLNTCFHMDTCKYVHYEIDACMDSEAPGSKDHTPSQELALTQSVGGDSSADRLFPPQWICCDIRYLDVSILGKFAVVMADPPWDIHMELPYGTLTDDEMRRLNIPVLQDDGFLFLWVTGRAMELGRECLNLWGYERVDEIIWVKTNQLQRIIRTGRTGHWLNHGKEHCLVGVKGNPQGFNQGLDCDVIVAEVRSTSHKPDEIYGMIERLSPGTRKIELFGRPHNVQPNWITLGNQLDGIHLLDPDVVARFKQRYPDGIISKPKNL
T1 sequence (Q9HCE5 whole entry partner): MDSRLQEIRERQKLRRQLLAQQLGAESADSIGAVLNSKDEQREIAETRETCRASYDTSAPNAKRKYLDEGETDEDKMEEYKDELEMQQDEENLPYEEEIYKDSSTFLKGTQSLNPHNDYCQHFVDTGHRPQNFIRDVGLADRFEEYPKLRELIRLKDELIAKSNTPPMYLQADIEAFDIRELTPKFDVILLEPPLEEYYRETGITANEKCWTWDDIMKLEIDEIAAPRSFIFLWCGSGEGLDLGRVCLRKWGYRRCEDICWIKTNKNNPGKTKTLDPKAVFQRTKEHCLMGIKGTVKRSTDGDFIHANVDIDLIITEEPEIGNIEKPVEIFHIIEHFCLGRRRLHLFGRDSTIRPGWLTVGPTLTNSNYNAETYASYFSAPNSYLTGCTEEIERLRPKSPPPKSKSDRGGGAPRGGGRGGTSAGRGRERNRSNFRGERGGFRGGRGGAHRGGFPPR

[2] = system: Caov-3 cells; test: Caov-3 cellular viability assay (ATP-Lite, 72 h); format: cell-based; details: Homo sapiens, ATP-Lite luminescence, % viability relative to DMSO
Procedure, shortened: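 10000 cells/well treated 72 h at 37 °C, 5% CO2, in RPMI-1640 with 10% FBS and 0.1% DMSO final. Viability by ATP-Lite One Step luminescence. Expressed as % of DMSO control, with IC50 from each compound's concentration-response curve.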

[3] = system: Kasumi-1 cells; test: Kasumi-1 cellular viability assay (ATP-Lite, 72 h); format: cell-based; details: Homo sapiens, ATP-Lite luminescence, % viability relative to DMSO
Procedure, shortened: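 Kasumi-1 AML cells, 15000/well in RPMI-1640 with 10% FBS, were exposed to compound titrations (0.1% final DMSO) for 72 h at 37 °C, 5% CO2. ATP-Lite One Step luminescence gave % viability versus DMSO control, and IC50 came from the concentration-response.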

| IC50 [1] [nM] | Structure (SMILES) | IC50 [2] [nM] | IC50 [3] [nM] |
| --- | --- | --- | --- |
| ≤ 50 | CN(C)c1cncc(NC(=O)C2(c3ccc(N4CCC[C@@H](NCC5CC5)C4)cn3)COC2)c1 [Compound 175, (R)-3-(5-(3-((cyclopropylmethyl)amino)piperidin-1-yl)pyridin-2-yl)-N-(5-(dimethylamino)pyridin-3-yl)oxetane-3-carboxamide] | 500 to 5000 | 500 to 5000 |
| ≤ 50 | COc1cncc(-c2cn(C(C)c3ccc(N4CCC[C@@H](NCC5CCC5)C4)nn3)cn2)c1 (stereo partly drawn) [Compound 182, (3R)—N-(cyclobutylmethyl)-1-(6-(1-(4-(5-methoxypyridin-3-yl)-1H-imidazol-1-yl)ethyl)pyridazin-3-yl)piperidin-3-amine] | ≤ 500 | 500 to 5000 |
| ≤ 50 | CN(C)c1cncc(-c2cn(Cc3ccc(N4CCC[C@@H](NCC5CC5)C4)nn3)nn2)c1 [Compound 183, (R)-5-(1-((6-(3-((cyclopropylmethyl)amino)piperidin-1-yl)pyridazin-3-yl)methyl)-1H-1,2,3-triazol-4-yl)-N,N-dimethylpyridin-3-amine] | ≤ 500 | 500 to 5000 |
| ≤ 50 | CN(C)c1cncc(-c2cn(C3(c4ccc(N5CCC[C@@H](NCC6CC6)C5)cn4)COC3)nn2)c1 [Compound 184, (R)-5-(1-(3-(5-(3-((cyclopropylmethyl)amino)piperidin-1-yl)pyridin-2-yl)oxetan-3-yl)-1H-1,2,3-triazol-4-yl)-N,N-dimethylpyridin-3-amine] | ≤ 500 | ≤ 500 |
| ≤ 50 | c1cc(C2(n3cc(-c4cncc(N5CCCC5)n4)nn3)COC2)ncc1N1CCC[C@@H](NCC2CC2)C1 [Compound 185, (R)-N-(cyclopropylmethyl)-1-(6-(3-(4-(6-(pyrrolidin-1-yl)pyrazin-2-yl)-1H-1,2,3-triazol-1-yl)oxetan-3-yl)pyridin-3-yl)piperidin-3-amine] | ≤ 500 | ≤ 500 |
| ≤ 50 | CC(c1ccc(N2CCC[C@@H](NCC3CCC3)C2)cc1)n1cc(-c2cncc(N(C)C)c2)nn1 (stereo partly drawn) [Compound 189, 5-(1-(1-(4-((R)3-((cyclobutylmethyl)amino)piperidin-1-yl)phenyl)ethyl)-1H-1,2,3-triazol-4-yl)-N,N-dimethylpyridin-3-amine] | ≤ 500 | ≤ 500 |
| ≤ 50 | CN(C)c1cncc(-c2cn(C3(c4ccc(N5CCC[C@@H](NCC6CC6)C5)cn4)COC3)nn2)n1 [Compound 192, (R)-6-(1-(3-(5-(3-((cyclopropylmethyl)amino)piperidin-1-yl)pyridin-2-yl)oxetan-3-yl)-1H-1,2,3-triazol-4-yl)-N,N-dimethylpyrazin-2-amine] | ≤ 500 | ≤ 500 |
| ≤ 50 | c1ncc(N2CCCC2)cc1-c1cn(C2(c3ccc(N4CCC[C@@H](NCC5CC5)C4)cn3)COC2)nn1 [Compound 194, (R)-N-(cyclopropylmethyl)-1-(6-(3-(4-(5-(pyrrolidin-1-yl)pyridin-3-yl)-1H-1,2,3-triazol-1-yl)oxetan-3-yl)pyridin-3-yl)piperidin-3-amine] | ≤ 500 | ≤ 500 |
| ≤ 50 | O=C(Nc1cncc(N2CCCC2)c1)C1(c2ccc(N3CCC[C@@H](NCC4CC4)C3)cn2)COC1 [Compound 195, (R)-3-(5-(3-((cyclopropylmethyl)amino)piperidin-1-yl)pyridin-2-yl)-N-(5-(pyrrolidin-1-yl)pyridin-3-yl)oxetane-3-carboxamide] | 500 to 5000 | 500 to 5000 |
| ≤ 50 | CC(c1cnn(-c2cncc(N(C)C)c2)c1)n1ccc(N2CCC[C@@H](NCC3CC3)C2)cc1=O (stereo partly drawn) [Compound 196, 4-((R)-3-((cyclopropylmethyl)amino)piperidin-1-yl)-1-(1-(1-(5-(dimethylamino)pyridin-3-yl)-1H-pyrazol-4-yl)ethyl)pyridin-2(1H)-one] | ≤ 500 | ≤ 500 |
| ≤ 50 | CC(n1cc(-c2cncc(N3CC(F)(F)C3)c2)nn1)n1ccc(N2CCC[C@@H](NCC3CC3)C2)cc1=O (stereo partly drawn) [Compound 197] | 500 to 5000 | 500 to 5000 |
| ≤ 50 | O=c1cc(N2CCC[C@@H](NCC3CC3)C2)ccn1Cn1cc(-c2cncc(N3CCCC3)n2)nn1 [Compound 201, (R)-4-(3-((cyclopropylmethyl)amino)piperidin-1-yl)-1-((4-(6-(pyrrolidin-1-yl)pyrazin-2-yl)-1H-1,2,3-triazol-1-yl)methyl)pyridin-2(1H)-one] | ≤ 500 | ≤ 500 |
| ≤ 50 | c1nnc(-c2cn(C3(c4ccc(N5CCC[C@@H](NCC6CC6)C5)cn4)COC3)nn2)cc1N1CCCC1 [Compound 202, (R)-N-(cyclopropylmethyl)-1-(6-(3-(4-(5-(pyrrolidin-1-yl)pyridazin-3-yl)-1H-1,2,3-triazol-1-yl)oxetan-3-yl)pyridin-3-yl)piperidin-3-amine] | ≤ 500 | ≤ 500 |
| ≤ 50 | CCN(C)c1cncc(-c2cn(C(C)n3ccc(N4CCC[C@@H](NCC5CC5)C4)cc3=O)nn2)c1 (stereo partly drawn) [Compound 203] | ≤ 500 | ≤ 500 |
| ≤ 50 | CC(n1cc(-c2cncc(NCCO)c2)nn1)n1ccc(N2CCC[C@@H](NCC3CC3)C2)cc1=O (stereo partly drawn) [Compound 205] | 500 to 5000 | > 5000 |
| ≤ 50 | c1cc(N2CCC[C@@H](NCC3CC3)C2)ncc1C1(n2cc(-c3cncc(N4CCCC4)n3)nn2)COC1 [Compound 207, (R)-N-(cyclopropylmethyl)-1-(5-(3-(4-(6-(pyrrolidin-1-yl)pyrazin-2-yl)-1H-1,2,3-triazol-1-yl)oxetan-3-yl)pyridin-2-yl)piperidin-3-amine] | ≤ 500 | ≤ 500 |
| ≤ 50 | CC(C(=O)Nc1cncc(N2CCCC2)c1)n1ccc(N2CCC[C@@H](NCC3CCC3)C2)cc1=O (stereo partly drawn) [Compound 208, 2-(4-((R)-3-((cyclobutylmethyl)amino)piperidin-1-yl)-2-oxopyridin-1(2H)-yl)-N-(5-(pyrrolidin-1-yl)pyridin-3-yl)propanamide] | 500 to 5000 | 500 to 5000 |
| ≤ 50 | c1ncc(N2CCCC2)cc1-c1cn(C2(c3ccc(N4CCC[C@@H](NCC5CC5)C4)nn3)COC2)nn1 [Compound 212, (R)-N-(cyclopropylmethyl)-1-(6-(3-(4-(5-(pyrrolidin-1-yl)pyridin-3-yl)-1H-1,2,3-triazol-1-yl)oxetan-3-yl)pyridazin-3-yl)piperidin-3-amine] | ≤ 500 | ≤ 500 |
| ≤ 50 | c1ncc(N2CCCC2)nc1-c1cn(C2(c3ccc(N4CCC[C@@H](NCC5CC5)C4)nn3)COC2)nn1 [Compound 213, (R)-N-(cyclopropylmethyl)-1-(6-(3-(4-(6-(pyrrolidin-1-yl)pyrazin-2-yl)-1H-1,2,3-triazol-1-yl)oxetan-3-yl)pyridazin-3-yl)piperidin-3-amine] | ≤ 500 | ≤ 500 |
| ≤ 50 | CC1(C)CCN(c2cncc(-c3cn(C4(c5ccc(N6CCC[C@@H](NCC7CC7)C6)cn5)COC4)nn3)n2)C1 [Compound 214, (R)-N-(cyclopropylmethyl)-1-(6-(3-(4-(6-(3,3-dimethylpyrrolidin-1-yl)pyrazin-2-yl)-1H-1,2,3-triazol-1-yl)oxetan-3-yl)pyridin-3-yl)piperidin-3-amine] | ≤ 500 | ≤ 500 |
| ≤ 50 | FC1(F)CCN(c2cncc(-c3cn(C4(c5ccc(N6CCC[C@@H](NCC7CC7)C6)cn5)COC4)nn3)n2)C1 [Compound 215, (R)-N-(cyclopropylmethyl)-1-(6-(3-(4-(6-(3,3-difluoropyrrolidin-1-yl)pyrazin-2-yl)-1H-1,2,3-triazol-1-yl)oxetan-3-yl)pyridin-3-V)piperidin-3-amine] | ≤ 500 | ≤ 500 |
| ≤ 50 | c1cc(C2(n3cc(-c4cncc(N5CC6CC6C5)n4)nn3)COC2)ncc1N1CCC[C@@H](NCC2CC2)C1 (stereo partly drawn) [Compound 216, (3R)-1-(6-(3-(4-(6-(3-azabicyclo[3.1.0]hexan-3-yl)pyrazin-2-yl)-1H-1.2.3-triazol-1-yl)oxetan-3-yl)pyridin-3-yl)-N-(cyclopropylmethyl)piperidin-3-amine] | ≤ 500 | ≤ 500 |
| ≤ 50 | O=C(Nc1cc(=O)n2ccccc2n1)C1(c2ccc(N3CCC[C@@H](NCC4CC4)C3)cn2)COC1 [Compound 217, (R)-3-(5-(3-((cyclopropylmethyl)amino)piperidin-1-yl)pyridin-2-yl)-N-(4-oxo-4H-pyrido[1,2-a]pyrimidin-2-yl)oxetane-3-carboxamide] | ≤ 500 | ≤ 500 |
| ≤ 50 | c1cc(C2(n3cc(-c4cncc(N5CC6(COC6)C5)n4)nn3)COC2)ncc1N1CCC[C@@H](NCC2CC2)C1 [Compound 221, (R)-1-(6-(3-(4-(6-(2-oxa-6-azaspiro[3.3]heptan-6-yl)pyrazin-2-yl)-1H-1,2,3-triazol-1-yl)oxetan-3-yl)pyridin-3-yl)-N-(cyclopropylmethyl)piperidin-3-amine] | 500 to 5000 | 500 to 5000 |
| ≤ 50 | c1cc(C2(n3cc(-c4cncc(N5CCC6(CC6)C5)n4)nn3)COC2)ncc1N1CCC[C@@H](NCC2CC2)C1 [Compound 222, (R)-1-(6-(3-(4-(6-(5-azaspiro[2.4]heptan-5-yl)pyrazin-2-yl)-1H-1,2,3-triazol-1-yl)oxetan-3-yl)pyridin-3-yl)-N-(cyclopropylmethyl)piperidin-3-amine] | ≤ 500 | ≤ 500 |
